From patent US7465754B1, “Method of potentiating chemotherapy and treating solid tumors” (Wyeth, priority 1999, dated 2008)

What was measured:
[1] = tested on: tumor cell growth in vitro; assay: Tumor cell growth in vitro / cell culture; format: cell-based
[2] = tested on: human non small-cell lung carcinoma (NSCLC) line H-157; assay: H-157 NSCLC xenograft in nude mice, tumor growth; format: in vivo
Experimental: The potentiating effect of bioresponse modifiers on chemotherapeutic agents was evaluated in an in vivo standard pharmacological test procedure in which a human non small cell type lung cancer (NSCLC) cell line was engrafted onto the flanks of immunodeficient nude mice. The following briefly describes the test procedure used and results obtained. [R-(R*,R*)]-N-[(R)-6-Carboxy-N^2-[[2-carboxy-1-methyl-2-[(1-oxoheptyl)amino]ethoxy]carbonyl]-L-lysyl]-alanine was used as a representative bioresponse modifier and paclitaxcel was used a representative chemotherapeutic agent.
Balb-c nu/nu female mice were obtained from Charles River Laboratories at 6-8 weeks of age and used experimentally at 8-10 weeks of age. The human non small-cell lung carcinoma (NSCLC) line H-157 was obtained from the American tissue culture collection (ATCC) (Bethesda, Md.). Cells were grown in RPMI medium with 10% fetal bovine serum.
Mice were injected subcutaneously with 7.5×10^6H-157 NSCLC tumor cells. Tumors were allowed to develop until they reached a size of 80-150 mg. Tumor size was determined using vernier calipers to measure length (l) and width (w). The tumor volume was estimated using the formula l×w^2/2. The volume in mm^3 can be converted to milligrams directly assuming unit density. Seven days after injection, mice were randomized (day 0) into groups of 10 with a mean tumor mass of 100 mg. Treatment groups received paclitaxcel (30 mg/kg) on day 0 and either vehicle or [R-(R*,R*)]-N-[(R)-6-Carboxy-N^2-[[2-carboxy-1-methyl-2-[(1-oxoheptyl)amino]ethoxy]carbonyl]-L-lysyl]-alanine (100 μg/kg) on days 1 and 8.

SMILES: CCCCCCC(=O)N[C@@H](C(=O)O)[C@@H](C)OC(=O)N[C@@H](CCC[C@@H](N)C(=O)O)C(=O)NC(C)C(=O)O (relative stereo) [CI, [R-(R*,R*)]-N-[(R)-6-carboxy-N^2-[[2-carboxy-1-methyl-2-[(1-oxoheptyl)amino]ethoxy]carbonyl]-L-lysyl]-alanine]
- potentiation of the growth inhibitory effect of paclitaxcel in cell culture ([1]; cell culture, with paclitaxcel): nor does it potentiate the growth inhibitory effect of paclitaxcel in cell culture
- direct inhibition of tumor cell growth in vitro ([1]; in vitro): does not directly inhibit tumor cell growth in vitro

SMILES: CC(=O)O[C@H]1C(=O)[C@@]2(C)[C@H]([C@H](OC(=O)c3ccccc3)[C@]3(O)C[C@H](OC(=O)[C@H](O)[C@@H](NC(=O)c4ccccc4)c4ccccc4)C(C)=C1C3(C)C)[C@]1(OC(C)=O)CO[C@@H]1C[C@@H]2O [Paclitaxcel, paclitaxcel]
- % Suppression (Day 7) ([2]; Day 7, versus untreated control, paclitaxcel 30 mg/kg day 0, vehicle or CI 100 μg/kg days 1 and 8): 30%
- Tumor size (mg) Day 7 ([2]; Day 7, paclitaxcel 30 mg/kg day 0, vehicle or CI 100 μg/kg days 1 and 8, mean ± standard deviation, 5 evaluations, 10 mice/group): ^c289 ± 108 mg
- % Suppression (Day 14) ([2]; Day 14, versus untreated control, paclitaxcel 30 mg/kg day 0, vehicle or CI 100 μg/kg days 1 and 8): 30%
- Tumor size (mg) Day 14 ([2]; Day 14, paclitaxcel 30 mg/kg day 0, vehicle or CI 100 μg/kg days 1 and 8, mean ± standard deviation, 5 evaluations, 10 mice/group): 866 ± 348 mg
- tumor cell growth (in words) ([2]; day 7, Student's t test): inhibited tumor cell growth
- tumor growth (in words) ([2]; day 14): not significantly suppressed versus control
